One assay addresses T1, BRD9 (Homo sapiens, UniProt Q9H8M2).
T1 construct: Western blot analysis of BRD9 and BRD7 levels after treatment of HeLa cells; endogenous in cells; host or cells: HeLa
T1 sequence (Q9H8M2 1-597): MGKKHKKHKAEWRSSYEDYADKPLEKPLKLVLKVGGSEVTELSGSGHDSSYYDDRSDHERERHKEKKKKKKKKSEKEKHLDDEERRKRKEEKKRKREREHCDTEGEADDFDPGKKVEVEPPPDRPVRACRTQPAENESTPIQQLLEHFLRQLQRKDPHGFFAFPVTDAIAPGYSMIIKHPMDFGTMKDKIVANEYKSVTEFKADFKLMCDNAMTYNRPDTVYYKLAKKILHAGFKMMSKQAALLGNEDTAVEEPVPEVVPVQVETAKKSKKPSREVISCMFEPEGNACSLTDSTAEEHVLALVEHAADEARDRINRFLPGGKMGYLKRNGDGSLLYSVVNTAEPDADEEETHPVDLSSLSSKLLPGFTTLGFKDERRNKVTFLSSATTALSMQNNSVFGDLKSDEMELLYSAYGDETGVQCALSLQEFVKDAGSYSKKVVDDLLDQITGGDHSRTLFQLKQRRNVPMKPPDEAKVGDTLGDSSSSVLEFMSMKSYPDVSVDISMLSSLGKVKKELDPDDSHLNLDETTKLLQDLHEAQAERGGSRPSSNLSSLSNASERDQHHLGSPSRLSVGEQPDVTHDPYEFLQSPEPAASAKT
As to the kind of experiment: Western blot of BRD9 levels in RI-1 cells after compound treatment. Format: cell-based. The note with it: for BRD9 degradation: 4 h.

In a further assay the target is T2, BRD7 (Homo sapiens, UniProt Q9NPI1).
T2 construct: Western blot analysis of BRD9 and BRD7 levels after treatment of HeLa cells; endogenous in cells; host or cells: HeLa
T2 sequence (Q9NPI1 1-651): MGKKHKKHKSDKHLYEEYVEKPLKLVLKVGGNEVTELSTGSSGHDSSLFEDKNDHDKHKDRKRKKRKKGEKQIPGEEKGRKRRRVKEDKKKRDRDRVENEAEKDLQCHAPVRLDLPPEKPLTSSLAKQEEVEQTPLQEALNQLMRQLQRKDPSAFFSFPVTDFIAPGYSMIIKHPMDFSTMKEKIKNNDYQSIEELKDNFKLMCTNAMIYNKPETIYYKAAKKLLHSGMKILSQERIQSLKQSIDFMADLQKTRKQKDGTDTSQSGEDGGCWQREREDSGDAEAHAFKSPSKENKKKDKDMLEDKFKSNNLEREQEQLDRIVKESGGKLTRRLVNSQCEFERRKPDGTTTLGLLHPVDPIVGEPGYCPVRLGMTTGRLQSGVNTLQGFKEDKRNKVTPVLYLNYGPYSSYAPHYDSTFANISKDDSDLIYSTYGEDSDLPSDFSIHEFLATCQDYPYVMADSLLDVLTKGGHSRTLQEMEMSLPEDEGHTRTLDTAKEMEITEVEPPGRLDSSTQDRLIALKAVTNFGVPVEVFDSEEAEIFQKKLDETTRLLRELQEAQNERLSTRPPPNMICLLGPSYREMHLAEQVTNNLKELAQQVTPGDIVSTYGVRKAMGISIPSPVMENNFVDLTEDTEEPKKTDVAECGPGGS
As to the kind of experiment: Western blot of BRD7 levels in HeLa cells after compound treatment. The assay is classed as cell-based. The note with it: 1 μM compound; for BRD7 degradation: HeLa cells. The method, then: HeLa and Hek293 cells were seeded at either 0.3 × 10^6 or 0.5 × 10^6 cells per well in 6-well plate in 2 mL of medium. At 80% confluency, cells were treated with compounds at the desired concentration, with final DMSO concentration of 0.1% v/v. Cells were incubated at 37 °C and 5% of CO2 for the desired time before harvesting. For protein extraction from adherent cells, cells were washed twice with DPBS (Gibco) and lysed with RIPA buffer (Sigma-Aldrich), supplemented with cOmplete Mini EDTA-free protease inhibitor cocktail (Roche). Insoluble material was removed by centrifugation at 14 000 rpm for 15 min at 4 °C. Supernatant was collected and protein concentration was quantified by Bradford assay (Thermo Scientific no. 23200, mean of two replicates). For RI-1 cells, (1–1.5) × 10^6 cells/mL were seeded in 6-well plate in 2 mL of medium. The day after, cells were treated with compounds at the desired concentration, with final DMSO concentration of 0.1% v/v. Before harvesting, cells were incubated at 37 °C and 5% CO2 for the desired time. Cells were washed twice with DPBS (Gibco) and lysed with RIPA buffer (Sigma-Aldrich), supplemented with cOmplete Mini EDTA-free protease inhibitor cocktail (Roche). Lysates were sonicated (10 s) and centrifuged at 14 000 rpm for 20 min at 4 °C. Supernatant was collected, and protein concentration was quantified by Bradford assay (mean of two replicates). For EOL-1 and A-204 cell line, 20 000 cells were seeded in 300 μL per well in a 24-well plate and incubated at 37 °C overnight. Compounds were added from DMSO stock solution using a digital dispenser D300 (Tecan), normalizing for added DMSO, and cells were incubated at 37 °C for 18 h. Medium was removed, and cells were washed with PBS and lysed in 80 μL of lysis buffer (1% Triton, 350 mM KCl, 10 mM Tris, pH 7,4, phosphatase-protease inhibitor cocktail (Thermo Scientific no. 1861281), 10 mM DTT, Benzonase 0.5 μL/ml (Novagen no. 70746 10KU, 25 U/μL)) for 30 min on ice before insoluble debris was pelleted by centrifugation.
Proteins were resolved by SDS–PAGE on NuPage 4–12% Bis-Tris Midi Gel (Invitrogen) and transferred to Amersham Protran 0.45 NC nitrocellulose membrane (GE Healthcare) using wet transfer. The membrane was blocked with 5% w/v milk in Tris-buffered saline (TBS) with 0.1% w/v Tween-20. The following primary antibodies at the given concentration were used: anti β-actin (Cell Signaling Technology, 4970S, 13E5) 1:2000, anti-Brd9 (Bethyl A303-781A) 1:1000, anti-Brd7 (Bethyl A302-304A) 1:1000, VHL rabbit Ab (Cell Signaling Technology, no. 68547S) 1:1000, anti-CRBN (Novus Bio, NBP 1-9-1810) 1:1000, anti-actin hFAB rhodamine antibody, Bio-Rad, no. 12004164. Following incubation with horseradish peroxidase-conjugated secondary antibody (Cell Signaling Technology) or IRDye secondary antibody (Licor), bands were developed using Amersham ECL Prime Western blotting detection kit on Amersham Hyperfilm ECL film (Amersham) or ChemiDoc imaging system (Bio-Rad). ImageJ software was used for band quantification, and the last was reported as relative amount as ratio of each protein band relative to the lane’s loading control. Then the values obtained were normalized to 0.1% DMSO vehicle control. Alternatively, protein levels were determined on a WES capillary electrophoresis instrument (Proteinsimple) using a BRD9 antibody (Bethyl A303-781A) and a GAPDH antibody (Abcam no. ab9485) for normalization. DC50 and half-lives were determined by assuming a linear model between the two data points across 50% protein level mark.
On the technique in general: In western blotting, separated proteins are transferred to a membrane and probed.

SMILES strings stand for the structures.

This is an account of results in PMC6348446 (Journal of Medicinal Chemistry, 2018).

With `COc1cc(-c2cn(C)c(=O)c3cnccc23)cc(OC)c1CN1CCN(CCCCCOc2cc(-c3scnc3C)ccc2CNC(=O)[C@@H]2C[C@H](O)CN2C(=O)[C@@H](NC(=O)C2(F)CC2)C(C)(C)C)CC1` [cisVZ185], at BRD9 (RI-1 cells, 100 nM), the BRD9 degradation entry was “no degradation”.

As for `COc1cc(-c2cn(C)c(=O)c3cnccc23)cc(OC)c1CN1CCN(CCOCCOCCOc2cc(-c3scnc3C)ccc2CNC(=O)[C@@H]2C[C@@H](O)CN2C(=O)[C@@H](NC(=O)C2(F)CC2)C(C)(C)C)CC1` [Compound 26, (2S,4R)-N-(2-(2-(2-(2-(4-(2,6-Dimethoxy-4-(2-methyl-1-oxo-1,2-dihydro-2,7-naphthyridin-4-yl)benzyl)piperazin-1-yl)ethoxy)ethoxy)ethoxy)-4-(4-methylthiazol-5-yl)benzyl)-1-((S)-2-(1-fluorocyclopropane-1-carboxamido)-3,3-dimethylbutanoyl)-4-hydroxypyrrolidine-2-carboxamide], at BRD7 (4 h, Table 2, % of total protein remaining relative to 0.1% DMSO vehicle, HeLa cell lysates, read-out: BRD7 4 h (%)), the remaining activity at 1 µM was 97%.

The molecule `COc1cc(-c2cn(C)c(=O)c3cnccc23)cc(OC)c1CN1CCN(CCCCCOc2cc(-c3scnc3C)ccc2CNC(=O)[C@@H]2C[C@@H](O)CN2C(=O)[C@@H](NC(=O)C2(F)CC2)C(C)(C)C)CC1` [Compound 51, (2S,4R)-N-(2-((5-(4-(2,6-Dimethoxy-4-(2-methyl-1-oxo-1,2-dihydro-2,7-naphthyridin-4-yl)benzyl)piperazin-1-yl)pentyl)oxy)-4-(4-methylthiazol-5-yl)benzyl)-1-((S)-2-(1-fluorocyclopropane-1-carboxamido)-3,3-dimethylbutanoyl)-4-hydroxypyrrolidine-2-carboxamide] returned a remaining activity at 1 µM at BRD9 (2 h, Table 3, % of total protein remaining relative to 0.1% DMSO vehicle, 1 μM compound, RI-1) of 100%. In addition, the “decrease of BRD9 level” value at BRD9 (RI-1 cells, 100 nM, 30 min) is recorded as “more than 50%”. Also, the BRD9 degradation entry on BRD9 (RI-1 cells, 100 nM) is given as “more than 90%”. Besides, the “concentration window of maximal protein degradation of BRD9” value on BRD9 (RI-1 cells, 2 and 8 h) is 10 to 100 nM.

On to `COc1cc(-c2cn(C)c(=O)c3cnccc23)cc(OC)c1CN1CCN(CCOCCOCC(=O)N[C@H](C(=O)N2C[C@H](O)C[C@H]2C(=O)NCc2ccc(-c3scnc3C)cc2)C(C)(C)C)CC1` [Compound 5, (2S,4R)-1-((S)-2-(2-(2-(2-(4-(2,6-Dimethoxy-4-(2-methyl-1-oxo-1,2-dihydro-2,7-naphthyridin-4-yl)benzyl)piperazin-1-yl)ethoxy)ethoxy)acetamido)-3,3-dimethylbutanoyl)-4-hydroxy-N-(4-(4-methylthiazol-5-yl)benzyl)pyrrolidine-2-carboxamide], for which the BRD7 degradation result at BRD7 (4 h) is recorded as “at most 20%”; at BRD7 (16 h) it was at most 30%.
